Assay results as given in patent publication US20230203098A1, “HUMAN TRANSFERRIN RECEPTOR BINDING PEPTIDE” (priority 2020, published 2023).
Like-named read-outs stand apart in the source and are kept apart here. Blank lines part the entries; values can stand above or below the compound they belong to. Where a SMILES comes first, the peptide text is derived from it. Bridges are numbered along the chain shown (N, C = ends). [ ]: non-standard residue; d: D form. NMePhe(3-Cl) = CN[C@@H](Cc1cccc(Cl)c1)C(=O)O; NMeW = CN[C@@H](Cc1c[nH]c2ccccc12)C(=O)O; Phe(4-Cl) = N[C@@H](Cc1ccc(Cl)cc1)C(=O)O; Lys(N3) = [N-]=[N+]=NCCCC[C@H](N)C(=O)O; NMeY = CN[C@@H](Cc1ccc(O)cc1)C(=O)O; NMeF = CN[C@@H](Cc1ccccc1)C(=O)O; PEG4 = NCCOCCOCCOCCOCCC(=O)O; dOrn = NCCC[C@@H](N)C(=O)O; Aib = CC(C)(N)C(=O)O

Target: transferrin receptor (hTfR) (Homo sapiens, UniProt P02786)
Sequence (P02786 whole entry): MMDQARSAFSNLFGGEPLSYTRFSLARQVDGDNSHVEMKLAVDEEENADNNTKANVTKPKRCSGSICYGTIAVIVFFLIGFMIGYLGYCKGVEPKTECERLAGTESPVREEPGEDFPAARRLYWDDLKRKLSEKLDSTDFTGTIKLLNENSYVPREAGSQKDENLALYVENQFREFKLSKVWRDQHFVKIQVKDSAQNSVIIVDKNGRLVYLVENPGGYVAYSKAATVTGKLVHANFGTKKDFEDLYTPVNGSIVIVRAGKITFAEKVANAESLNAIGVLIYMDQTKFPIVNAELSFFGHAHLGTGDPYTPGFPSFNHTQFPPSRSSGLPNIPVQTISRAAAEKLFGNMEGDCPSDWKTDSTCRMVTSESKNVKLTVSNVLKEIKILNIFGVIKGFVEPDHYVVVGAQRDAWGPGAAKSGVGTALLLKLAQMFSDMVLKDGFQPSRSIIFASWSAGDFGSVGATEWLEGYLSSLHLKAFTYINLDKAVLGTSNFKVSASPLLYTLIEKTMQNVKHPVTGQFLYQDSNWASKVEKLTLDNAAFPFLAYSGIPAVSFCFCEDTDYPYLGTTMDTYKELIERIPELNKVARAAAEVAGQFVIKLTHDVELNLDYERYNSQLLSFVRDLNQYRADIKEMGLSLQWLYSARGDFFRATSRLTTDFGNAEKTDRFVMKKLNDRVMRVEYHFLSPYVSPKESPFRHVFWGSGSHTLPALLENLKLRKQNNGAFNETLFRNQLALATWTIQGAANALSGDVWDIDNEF
Experiment: Intermolecular interaction evaluation test between transferrin receptor (hTfR) and peptide by surface plasmon resonance (SPR)
Format: binding
Description: For each of the various synthesized peptides, the intermolecular interaction of the peptide with the transferrin receptor (hTfR) was tested by surface plasmon resonance (SPR) according to the following method. The specific test method is as follows.
An NTA sensor chip (Global Life Sciences Technologies Japan) was inserted in a Biacore T200 (Global Life Sciences Technologies Japan) and a prime operation was performed 3 times with a running buffer: 10 mM HEPES pH 8.0 (Nacalai Tesque), 150 mM NaCl (Nacalai Tesque), 0.05% Tween 20 (Nacalai Tesque), 0.1% BSA (Sigma-Aldrich), 1.0% DMSO (FUJIFILM Wako Pure Chemical) to create an Equilibration state at a flow rate of 30 µL/min. After reacting with 350 mM EDTA solution for 60 seconds at a flow rate of 10 µL/min then reacting with 0.5 mM NiCl2 solution (Kishida Chemical) for 60 seconds at a flow rate of 10 µL/min, the NTA sensor chip was washed with 3 mM EDTA solution (Nacalai Tesque) for 60 seconds at a flow rate of 10 µL/min. After mixing 50 µL each of 60 mM EDC solution (Global Life Sciences Technologies Japan) and 650 mM NHS solution (Global Life Sciences Technologies Japan), the mixture was reacted for 420 seconds at a flow rate of 10 µL/min. By diluting with the running buffer, 150 µL of 3.2 µM hTfR solution was prepared and used for reaction for 600 seconds at a flow rate of 10 µL/min, thereby immobilizing hTfR on the NTA sensor chip. After immobilization, capping was performed by reacting with 1.0 M ethanolamine aqueous solution (Global Life Sciences Technologies Japan) for 420 seconds at a flow rate of 10 µL/min. A peptide dissolution liquid prepared to 10 mM in the DMSO solution was diluted with the running buffer to a final concentration of 10 µM so as to become the peptide dissolution liquid, then peptide solutions of 100 nM, 50 nM, 25 nM, 10 nM and 5 nM were prepared. Kinetics of the peptide to hTfR was acquired by SPR measurement using the above-mentioned samples. Single-cycle kinetics was used as a kinetic evaluation model and curve fitting was performed using Biacore T200 Evaluation Software Version 3.0 (Global Life Sciences Technologies Japan). An obtained sensorgram was subjected to curve fitting using the least-squares method, and the binding of the peptide to hTfR was evaluated by obtaining KD values. […] A chemical structure of hTfR No. 894 is as follows.
The variant peptides were synthesized according to Example 1 unless otherwise stated in Example 9 or 10. The linker-added peptides were synthesized according to Example 1, except that Fmoc-NH-SAL-PEG resin (Watanabe Chemical Industries) was used as a resin for the peptide synthesis when the linker was PEG. The peptide, to which a peptide, a fatty acid, PEG, or a conjugate thereof is added as a linker, was also synthesized according to Example 1, unless otherwise stated in Example 9 or 10.

[1] = surface plasmon resonance, peptide vs hTfR, read-out: KD value, hTfR binding by SPR (class symbol)
[2] = surface plasmon resonance, hTfR, read-out: KD value for hTfR by SPR (class symbol)
[3] = binding to hTfR by SPR, Table 2 peptides, read-out: KD value (SPR) class

Kd [1]: > 1000 nM
SMILES: CC[C@H](C)[C@@H]1NC(=O)[C@H](Cc2ccc(OCC(=O)O)cc2)NC(=O)[C@H](Cc2ccc(O)cc2)NC(=O)[C@H](CC(N)=O)NC(=O)[C@H](Cc2c[nH]c3ccccc23)N(C)C(=O)[C@H](C(C)C)NC(=O)[C@H](Cc2cccc(Cl)c2)N(C)C(=O)[C@H](C(C)C)NC(=O)[C@H](C)NC(=O)CSC[C@@H](C(N)=O)NC(=O)[C@H](Cc2ccc(O)cc2)N(C)C(=O)[C@H](Cc2ccccc2)NC(=O)[C@@H](CCCNC(=N)N)NC(=O)C(C)(C)NC(=O)[C@H]([C@@H](C)CC)NC1=O [compound 324]

Kd [2]: 1 to 100 nM
SMILES: CC[C@H](C)[C@@H]1NC(=O)[C@H](Cc2ccc(OC)cc2)NC(=O)[C@H](Cc2ccc(O)cc2)NC(=O)[C@H](CC(N)=O)NC(=O)[C@H](Cc2c[nH]c3ccccc23)N(C)C(=O)[C@H](C(C)C)NC(=O)[C@H](Cc2cccc(Cl)c2)N(C)C(=O)[C@H](C(C)C)NC(=O)[C@H](C)NC(=O)CSC[C@@H](C(=O)N[C@H](CCC(=O)O)C(=O)N(C)CC(=O)N[C@H](CCC(=O)O)C(N)=O)NC(=O)[C@H](Cc2ccc(O)cc2)N(C)C(=O)[C@H](Cc2ccccc2)NC(=O)[C@@H](CCCNC(=N)N)NC(=O)C(C)(C)NC(=O)[C@H]([C@@H](C)CC)NC1=O [compound 357]

Kd [3]: 1 to 100 nM
SMILES: CC[C@H](C)[C@@H]1NC(=O)[C@H](Cc2ccc(O)cc2)NC(=O)[C@H](Cc2ccc(O)cc2)NC(=O)[C@H](CC(N)=O)NC(=O)[C@H](Cc2c[nH]c3ccccc23)NC(=O)[C@H](C(C)C)NC(=O)[C@H](Cc2ccccc2)NC(=O)[C@H](C(C)C)NC(=O)[C@H](C)NC(=O)CSC[C@@H](C(N)=O)NC(=O)[C@H](Cc2ccc(O)cc2)N(C)C(=O)[C@H](Cc2ccc(O)cc2)NC(=O)[C@H](CCCCN)NC(=O)[C@H](CCCNC(=N)N)NC(=O)[C@H]([C@@H](C)CC)NC1=O [compound 258]

Kd (SPR, hTfR No. 894 variants with PEG12c linker (Table 2), read-out: KD): 1 to 100 nM
SMILES: CC[C@H](C)[C@@H]1NC(=O)[C@H](Cc2ccc(O)cc2)NC(=O)[C@H](Cc2ccc(O)cc2)NC(=O)[C@H](CC(N)=O)NC(=O)[C@H](Cc2c[nH]c3ccccc23)NC(=O)[C@H](C(C)C)NC(=O)[C@H](Cc2ccccc2)N(C)C(=O)[C@H](C(C)C)NC(=O)[C@H](C)NC(=O)CSC[C@@H](C(=O)NCCOCCOCCOCCOCCOCCOCCOCCOCCOCCOCCOCCOCCC(N)=O)NC(=O)[C@H](Cc2ccc(O)cc2)N(C)C(=O)[C@H](Cc2ccc(O)cc2)NC(=O)[C@@H](CCCNC(=N)N)NC(=O)[C@H](CCCNC(=N)N)NC(=O)[C@H]([C@@H](C)CC)NC1=O [compound 116]

SMILES: CC[C@H](C)[C@@H]1NC(=O)[C@H](Cc2ccc(OC)cc2)NC(=O)[C@H](Cc2ccc(O)cc2)NC(=O)[C@H](CC(N)=O)NC(=O)[C@H](Cc2c[nH]c3ccccc23)N(C)C(=O)[C@H](C(C)C)NC(=O)[C@H](Cc2cccc(Cl)c2)N(C)C(=O)[C@H](C(C)C)NC(=O)[C@H](C)NC(=O)CSC[C@@H](C(=O)NCC(=O)NCC(=O)NCC(=O)NCC(=O)N[C@@H](CO)C(=O)N[C@@H](CO)C(=O)N[C@@H](CS)C(N)=O)NC(=O)[C@H](Cc2ccc(O)cc2)N(C)C(=O)[C@H](Cc2ccccc2)NC(=O)[C@@H](CCCNC(=N)N)NC(=O)[C@H](CCCNC(=N)N)NC(=O)[C@H](CN)NC1=O [compound 343]
Kd: 1 to 100 nM

Kd [1]: 1 to 100 nM
SMILES: CC[C@H](C)[C@@H]1NC(=O)[C@H](Cc2ccc(OC)cc2)NC(=O)[C@H](Cc2ccc(O)cc2)NC(=O)[C@H](CC(N)=O)NC(=O)[C@H](Cc2c[nH]c3ccccc23)NC(=O)[C@H](C(C)C)NC(=O)[C@H](Cc2cccc(Cl)c2)N(C)C(=O)[C@H](C(C)C)NC(=O)[C@H](C)NC(=O)CSC[C@@H](C(=O)NCC(=O)NCC(=O)N[C@@H](CO)C(=O)NCC(=O)N[C@@H](CO)C(=O)NCC(=O)N[C@@H](CCCCN=[N+]=[N-])C(N)=O)NC(=O)[C@H](Cc2ccc(O)cc2)N(C)C(=O)[C@H](Cc2ccccc2)NC(=O)[C@@H](CCCNC(=N)N)NC(=O)[C@H](CCCCN)NC(=O)[C@H]([C@@H](C)CC)NC1=O [compound 314] ({CH2CO}-AV[NMePhe(3-Cl)]VWNYY(Me)IIK[dR]F[NMeY]CGGSGSG[Lys(N3)]-NH2; thioether N-15; C-terminus assumed)

Kd [3]: 100 to 1000 nM
SMILES: CC[C@H](C)[C@@H]1NC(=O)[C@H](Cc2ccc(O)cc2)NC(=O)[C@H](Cc2ccc(Cl)cc2)NC(=O)[C@H](CC(N)=O)NC(=O)[C@H](Cc2c[nH]c3ccccc23)NC(=O)[C@H](C(C)C)NC(=O)[C@H](Cc2ccccc2)N(C)C(=O)[C@H](C(C)C)NC(=O)[C@H](C)NC(=O)CSC[C@@H](C(=O)NCC(=O)N[C@@H](CCCCN=[N+]=[N-])C(N)=O)NC(=O)[C@H](Cc2ccc(O)cc2)N(C)C(=O)[C@H](Cc2ccc(O)cc2)NC(=O)[C@H](CCCNC(=N)N)NC(=O)[C@H](CCCNC(=N)N)NC(=O)[C@H]([C@@H](C)CC)NC1=O [compound 277] ({CH2CO}-AV[NMeF]VWN[Phe(4-Cl)]YIIRRY[NMeY]CG[Lys(N3)]-NH2; thioether N-15)

Kd [2]: 1 to 100 nM
SMILES: CC[C@H](C)[C@@H]1NC(=O)[C@H](Cc2ccc(OC)cc2)NC(=O)[C@H](Cc2ccc(O)cc2)NC(=O)[C@H](CC(N)=O)NC(=O)[C@H](Cc2c[nH]c3ccccc23)N(C)C(=O)[C@H](C(C)C)NC(=O)[C@H](Cc2cccc(Cl)c2)N(C)C(=O)[C@H](C(C)C)NC(=O)[C@H](C)NC(=O)CSC[C@@H](C(=O)NCCOCCOCCOCCOCCC(N)=O)NC(=O)[C@H](Cc2ccc(O)cc2)N(C)C(=O)[C@H](Cc2ccccc2)NC(=O)[C@@H](CCCNC(=N)N)NC(=O)[C@@H](CCCN)NC(=O)[C@H]([C@@H](C)CC)NC1=O [compound 368] ({CH2CO}-AV[NMePhe(3-Cl)]V[NMeW]NYY(Me)II[dOrn][dR]F[NMeY]C[PEG4]-NH2; thioether N-15)

Kd [3]: 1 to 100 nM
SMILES: CC[C@H](C)[C@@H]1NC(=O)[C@H](Cc2ccc(O)cc2)NC(=O)[C@H](Cc2ccc(O)cc2)NC(=O)[C@H](CC(N)=O)NC(=O)[C@H](Cc2cn(CCO)c3ccccc23)NC(=O)[C@H](C(C)C)NC(=O)[C@H](Cc2ccccc2)N(C)C(=O)[C@H](C(C)C)NC(=O)[C@H](C)NC(=O)CSC[C@@H](C(N)=O)NC(=O)[C@H](Cc2ccc(O)cc2)N(C)C(=O)[C@H](Cc2ccc(O)cc2)NC(=O)[C@H](CCCNC(=N)N)NC(=O)[C@H](CCCNC(=N)N)NC(=O)[C@H]([C@@H](C)CC)NC1=O [compound 271]

Kd [1]: > 1000 nM
SMILES: CC[C@H](C)[C@@H]1NC(=O)[C@H](Cc2ccc(OC)cc2)NC(=O)[C@H](Cc2ccc(O)cc2)NC(=O)[C@H](CC(N)=O)NC(=O)[C@H](Cc2c[nH]c3ccccc23)NC(=O)[C@H](C(C)C)NC(=O)[C@H](Cc2cccc(Cl)c2)N(C)C(=O)[C@H](C(C)C)NC(=O)[C@H](C)NC(=O)CSC[C@@H](C(=O)NCCOCCOCCOCCOCCC(N)=O)NC(=O)[C@H](Cc2ccc(O)cc2)N(C)C(=O)[C@H](Cc2ccccc2)NC(=O)[C@@H](CCCNC(=N)N)NC(=O)C(C)(C)NC(=O)[C@H]([C@@H](C)CC)NC1=O [compound 310] ({CH2CO}-AV[NMePhe(3-Cl)]VWNYY(Me)II[Aib][dR]F[NMeY]C[PEG4]-NH2; thioether N-15)

Kd [3]: 1 to 100 nM
SMILES: CC[C@H](C)[C@@H]1NC(=O)[C@H](Cc2ccc(O)cc2)NC(=O)[C@H](Cc2ccc(O)cc2)NC(=O)[C@H](CC(N)=O)NC(=O)[C@H](Cc2c[nH]c3ccccc23)NC(=O)[C@H](C(C)C)NC(=O)[C@H](Cc2ccccc2)NC(=O)[C@H](CCCCN)NC(=O)[C@H](C)NC(=O)CSC[C@@H](C(N)=O)NC(=O)[C@H](Cc2ccc(O)cc2)N(C)C(=O)[C@H](Cc2ccc(O)cc2)NC(=O)[C@H](CCCNC(=N)N)NC(=O)[C@H](CCCNC(=N)N)NC(=O)[C@H]([C@@H](C)CC)NC1=O [compound 238]

SMILES: CC[C@H](C)[C@@H]1NC(=O)[C@H](Cc2ccc(OC)cc2)NC(=O)[C@H](Cc2ccc(O)cc2)NC(=O)[C@H](CC(N)=O)NC(=O)[C@H](Cc2c[nH]c3ccccc23)N(C)C(=O)[C@H](C(C)C)NC(=O)[C@H](Cc2cccc(Cl)c2)N(C)C(=O)[C@H](CN)NC(=O)[C@H](C)NC(=O)CSC[C@@H](C(=O)NCC(=O)NCC(=O)NCC(=O)NCC(=O)N[C@@H](CO)C(=O)N[C@@H](CO)C(=O)N[C@@H](CS)C(N)=O)NC(=O)[C@H](Cc2ccc(O)cc2)N(C)C(=O)[C@H](Cc2ccccc2)NC(=O)[C@@H](CCCNC(=N)N)NC(=O)[C@H](CCCNC(=N)N)NC(=O)[C@H]([C@@H](C)CC)NC1=O [compound 239]
Kd: 1 to 100 nM
